In patent publication EP4741406A1, “NEUROKININ-1 RECEPTOR ANTAGONIST COMPOUND” (Creadev (Nanjing) Pharmaceutical Technology Co., Ltd., priority 2023, dated 2025):
≈ marks a conversion by molar mass, not a printed value.

Tests used:
[1] = In vivo pharmacokinetic study in rats, intravenous; settings: rat, 2 mg/kg
[2] = Pharmacokinetic study in crab-eating monkeys, intravenous infusion; settings: monkey, 2 mg/kg
[3] = Plasma stability assay (conversion to parent drug); assay type: in vitro ADME; settings: human plasma, 37 °C, 1 µM
Procedure: Human plasma (Vendor: AoNeng Biotech).
A certain amount of the compound of the examples was weighed and dissolved in DMSO to prepare a 10 mM stock solution. An aliquot of the 10 mM stock solution was diluted with DMSO to obtain a 1600 µM intermediate solution. An aliquot of the 1600 µM intermediate solution was further diluted with 45% methanol to prepare a 16 µM working solution.
• 1) Plasma was pre-incubated in a water bath at 37 °C for 5 min. • 2) 4 µL of the 16 µM working solution of the compound of the examples was added to 60 µL of plasma to give a final compound concentration of 1 µM, and the mixture was gently mixed. • 3) Samples were incubated at each time point (0, 15, 30, 60, and 120 min). After incubation, 192 µL of acetonitrile containing an internal standard was added, followed by shaking on a shaker for 1 min. The mixture was centrifuged at 3700 rpm at 4 °C for 20 min, and the supernatant was collected for LC-MS analysis.

[4] = Liver S9 stability assay (conversion to parent drug); assay type: in vitro ADME; settings: human liver S9 with NADPH, 37 °C
Procedure: Human pooled liver S9 (Vendor: Xenotech), thawed in a 37°C water bath before use.
Weigh a certain amount of the example compound, dissolve in DMSO to prepare a 10 mM stock solution, then dilute an appropriate volume of the stock solution with DMSO to obtain a 200 µM working solution.
Take 1.5 µL of the 200 µM working solution of the example compound and add it to 238.5 µL of liver S9 working solution, pre-incubate in a 37°C water bath for 5 min; then add 60 µL of NADPH working solution to initiate the reaction and mix by gentle inversion. At the 0 min time point, transfer the above mixture into quenching solution and mix; at the 5, 15, 30, and 60 min time points, transfer the mixture into quenching solution and DMSO and mix. […] Collect the supernatant for LC-MS analysis.

Thermodynamic solubility = assay type: physicochemical; settings: aqueous buffer, thermodynamic from solid; 100 mM phosphate buffer pH 7.4, room temperature, shaking 16 hours
[5] = system: red blood cell suspension; experiment: In vitro human hemolysis assay; assay type: cell-based; settings: concentrations as high as 200 µM, 37 °C, 45 minutes
[6] = time point 0 min, parent drug = Lorapiprant

Row | AUC(0-t) ([1]; whole blood) [ng·h/mL] | Cmax ([1]; whole blood) [ng/mL] | MRT inf ([1]; whole blood) [min] | Tmax ([1]; whole blood) [min] | half-life ([1]; whole blood) [min] | solubility at 16 h (Thermodynamic solubility) [mg/mL] | SMILES | Parent drug% [4, 6] [%] | Parent drug% ([4]; time point 5 min) [%] | Parent drug% ([4]; time point 15 min) [%] | Parent drug% ([4]; time point 30 min) [%] | Parent drug% ([4]; time point 60 min) [%] | further results
1 | 82.6 | 328 | 21 | 5 | 26.3 | – | C[C@@H](OC[C@@]1(c2ccccc2)CC[C@]2(CCC(=O)N2)CN1C(=O)OCOP(=O)(O)O)c1cc(C(F)(F)F)cc(C(F)(F)F)c1 [Compound of formula (I), reference compound] | – | – | – | – | – | AUC(0-t) ([2]; whole blood): 688 ng·h/mL; Cmax ([2]; whole blood): 2110 ng/mL; Tmax ([2]; whole blood): 30 min; half-life ([2]; whole blood): 9.06 min
2 | – | – | – | – | – | – | C[C@@H](OC[C@@]1(c2ccccc2)CC[C@]2(CCC(=O)N2)CN1C(=O)OCSSCCC(=O)O)c1cc(C(F)(F)F)cc(C(F)(F)F)c1 [Example 33] | 13.2 | 22.5 | 41.9 | 50.0 | 57.3 | –
3 | 19.9 | 116 | 7.56 | 5 | 8.34 | 6.54 (≈ 8.6 mM) | C[C@@H](OC[C@@]1(c2ccccc2)CC[C@]2(CCC(=O)N2)CN1C(=O)OCSSCCCOS(=O)(=O)O)c1cc(C(F)(F)F)cc(C(F)(F)F)c1 [Example 39] | – | – | – | – | – | hemolytic activity [5]: no hemolytic activity
4 | – | – | – | – | – | 10.9 (≈ 13.2 mM) | C[C@@H](OC[C@@]1(c2ccccc2)CC[C@]2(CCC(=O)N2)CN1C(=O)OCSSCCOCCOCCOCCC(=O)O)c1cc(C(F)(F)F)cc(C(F)(F)F)c1 [Example 47] | – | – | – | – | – | –

Row | SMILES | AUC(0-t) ([1]; whole blood) [ng·h/mL] | Cmax ([1]; whole blood) [ng/mL] | MRT inf ([1]; whole blood) [min] | Tmax ([1]; whole blood) [min] | half-life ([1]; whole blood) [min] | solubility at 16 h (Thermodynamic solubility) [mg/mL] | Parent drug% [4, 6] [%] | Parent drug% ([4]; time point 5 min) [%] | Parent drug% ([4]; time point 15 min) [%] | Parent drug% ([4]; time point 30 min) [%] | Parent drug% ([4]; time point 60 min) [%] | further results
5 | C[C@@H](OC[C@@]1(c2ccccc2)CC[C@]2(CCC(=O)N2)CN1C(=O)OCSSCCS(=O)(=O)O)c1cc(C(F)(F)F)cc(C(F)(F)F)c1 [Example 42] | – | – | – | – | – | 13.2 (≈ 18.1 mM) | 34.8 | 40.6 | 48.5 | 51.9 | 44.0 | Parent drug% [3, 6]: 6.09%; Parent drug% ([3]; time point 15 min): 52.71%; Parent drug% ([3]; time point 30 min): 60.94%; Parent drug% ([3]; time point 60 min): 53.88%; Parent drug% ([3]; time point 120 min): 66.59%; AUC(0-t) ([1]; in vivo): 9.42 ng·h/mL; Cmax ([1]; in vivo): 61.2 ng/mL; MRT inf ([1]; in vivo): 5.45 min; Tmax ([1]; in vivo): 5 min; half-life ([1]; in vivo): 4.66 min; AUC(0-t) ([2]; in vivo): 528 ng·h/mL; Cmax ([2]; in vivo): 1620 ng/mL; Tmax ([2]; in vivo): 30 min; half-life ([2]; in vivo): 6.06 min
